Earlier results on one molecule are cited in patent EP4066850A2, “PEPTIDES AND METHODS OF TREATING DYSTROPHY-RELATED DISORDERS USING THE SAME” (Bioincept LLC, priority 2017, dated 2018).

For the data set the following is noted: IV infusion together with radiation; xerostomia treatment (Kouvaria et al 2007).

Take `NCCCNCCSP(=O)(O)O` [Amifostine]: the side effects entry is reported as “serious side effects including fatal skin reaction”.
